Data from ChEMBL document CHEMBL3991601, “The target landscape of clinical kinase drugs” (Science, 2017).
Activity calls are given as the source filed them. For most assays here, no stated cut-off is given here; in the data, actives have a measured Kd and inactives only a lower limit.

Assays:
[1] = biological target: Tyrosine-protein kinase ABL2 (Homo sapiens, UniProt P42684)
[2] = biological target: Cyclin-dependent kinase 7 (Homo sapiens, UniProt P50613)
[3] = biological target: Tyrosine-protein kinase Fer (Homo sapiens, UniProt P16591)
[4] = biological target: Fibroblast growth factor receptor 1 (Homo sapiens, UniProt P11362)
[5] = biological target: Glycogen synthase kinase-3 beta (Homo sapiens, UniProt P49841)
[6] = biological target: MAP/microtubule affinity-regulating kinase 3 (Homo sapiens, UniProt P27448)
[7] = biological target: S-adenosylmethionine synthase isoform type-2 (Homo sapiens, UniProt P31153)
[8] = biological target: T1, Membrane-associated tyrosine- and threonine-specific cdc2-inhibitory kinase (Homo sapiens, UniProt Q99640)
T1 sequence (Q99640 whole entry): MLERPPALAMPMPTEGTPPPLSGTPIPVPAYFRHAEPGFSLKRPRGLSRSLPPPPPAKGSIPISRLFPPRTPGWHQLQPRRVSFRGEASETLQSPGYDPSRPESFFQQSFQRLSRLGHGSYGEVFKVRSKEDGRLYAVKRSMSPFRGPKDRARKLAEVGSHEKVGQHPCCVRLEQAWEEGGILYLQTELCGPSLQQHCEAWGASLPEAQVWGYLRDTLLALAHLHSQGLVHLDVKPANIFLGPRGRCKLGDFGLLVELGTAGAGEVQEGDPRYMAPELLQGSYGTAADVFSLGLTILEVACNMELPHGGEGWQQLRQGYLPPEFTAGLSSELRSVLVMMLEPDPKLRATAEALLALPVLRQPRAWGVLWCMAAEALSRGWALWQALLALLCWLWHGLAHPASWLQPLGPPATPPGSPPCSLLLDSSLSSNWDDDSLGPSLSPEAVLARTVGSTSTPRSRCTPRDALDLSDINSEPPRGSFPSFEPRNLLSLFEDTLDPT

[9] = biological target: 26S proteasome regulatory subunit 6B (Homo sapiens, UniProt P43686)
[10] = biological target: Receptor-interacting serine/threonine-protein kinase 3 (Homo sapiens, UniProt Q9Y572)
[11] = biological target: T2, STE20-related kinase adapter protein alpha (Homo sapiens, UniProt Q7RTN6)
T2 sequence (Q7RTN6 whole entry): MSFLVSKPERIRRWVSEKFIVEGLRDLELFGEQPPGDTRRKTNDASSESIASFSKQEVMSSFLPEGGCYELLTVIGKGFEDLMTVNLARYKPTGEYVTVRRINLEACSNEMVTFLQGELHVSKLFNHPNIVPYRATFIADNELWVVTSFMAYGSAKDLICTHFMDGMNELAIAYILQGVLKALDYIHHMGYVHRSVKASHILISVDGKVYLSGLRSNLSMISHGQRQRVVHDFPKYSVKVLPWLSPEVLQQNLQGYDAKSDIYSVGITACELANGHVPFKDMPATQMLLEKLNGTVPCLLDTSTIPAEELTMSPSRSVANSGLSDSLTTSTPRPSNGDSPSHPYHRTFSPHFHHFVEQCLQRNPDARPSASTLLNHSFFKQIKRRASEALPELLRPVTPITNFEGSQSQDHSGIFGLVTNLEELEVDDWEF

[12] = biological target: T3, Serine/threonine-protein kinase TAO2 (Homo sapiens, UniProt Q9UL54)
T3 sequence (Q9UL54 whole entry): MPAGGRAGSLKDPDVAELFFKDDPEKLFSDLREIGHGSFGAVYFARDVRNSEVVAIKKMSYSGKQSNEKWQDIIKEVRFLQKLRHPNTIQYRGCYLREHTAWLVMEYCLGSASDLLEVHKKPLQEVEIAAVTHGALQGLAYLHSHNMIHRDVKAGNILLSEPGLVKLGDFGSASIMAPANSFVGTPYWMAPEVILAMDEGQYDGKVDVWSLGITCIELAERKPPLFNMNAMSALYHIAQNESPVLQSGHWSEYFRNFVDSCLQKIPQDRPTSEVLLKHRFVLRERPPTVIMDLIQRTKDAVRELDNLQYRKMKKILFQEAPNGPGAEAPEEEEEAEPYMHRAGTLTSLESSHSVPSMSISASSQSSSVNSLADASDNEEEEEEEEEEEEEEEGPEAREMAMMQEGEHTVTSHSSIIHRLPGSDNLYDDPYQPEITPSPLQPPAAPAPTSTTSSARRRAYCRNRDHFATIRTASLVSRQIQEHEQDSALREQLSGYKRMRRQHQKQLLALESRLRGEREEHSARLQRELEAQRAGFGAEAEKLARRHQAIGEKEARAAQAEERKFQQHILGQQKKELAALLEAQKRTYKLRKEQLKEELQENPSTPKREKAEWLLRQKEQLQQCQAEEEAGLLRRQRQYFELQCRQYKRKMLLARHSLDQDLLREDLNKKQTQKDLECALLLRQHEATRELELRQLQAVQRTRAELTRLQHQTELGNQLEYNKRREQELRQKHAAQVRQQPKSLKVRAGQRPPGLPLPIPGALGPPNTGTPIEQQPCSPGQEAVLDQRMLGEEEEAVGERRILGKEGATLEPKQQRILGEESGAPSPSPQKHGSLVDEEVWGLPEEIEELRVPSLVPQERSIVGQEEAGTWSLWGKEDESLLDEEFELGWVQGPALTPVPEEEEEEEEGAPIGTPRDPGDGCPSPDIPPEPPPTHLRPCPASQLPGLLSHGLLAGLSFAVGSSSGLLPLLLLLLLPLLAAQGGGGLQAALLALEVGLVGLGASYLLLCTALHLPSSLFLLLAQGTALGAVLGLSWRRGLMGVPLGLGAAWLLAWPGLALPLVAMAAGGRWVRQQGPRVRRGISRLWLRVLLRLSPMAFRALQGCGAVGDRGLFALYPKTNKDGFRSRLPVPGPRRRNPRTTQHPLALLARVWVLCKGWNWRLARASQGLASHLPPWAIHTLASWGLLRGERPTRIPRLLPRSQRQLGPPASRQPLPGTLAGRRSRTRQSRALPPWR

[13] = biological target: Actin-related protein 2 (Homo sapiens, UniProt P61160)
[14] = biological target: Mitogen-activated protein kinase kinase kinase 20 (Homo sapiens, UniProt Q9NYL2)
Mitogen-activated protein kinase kinase kinase 20, sequence (Q9NYL2 whole entry): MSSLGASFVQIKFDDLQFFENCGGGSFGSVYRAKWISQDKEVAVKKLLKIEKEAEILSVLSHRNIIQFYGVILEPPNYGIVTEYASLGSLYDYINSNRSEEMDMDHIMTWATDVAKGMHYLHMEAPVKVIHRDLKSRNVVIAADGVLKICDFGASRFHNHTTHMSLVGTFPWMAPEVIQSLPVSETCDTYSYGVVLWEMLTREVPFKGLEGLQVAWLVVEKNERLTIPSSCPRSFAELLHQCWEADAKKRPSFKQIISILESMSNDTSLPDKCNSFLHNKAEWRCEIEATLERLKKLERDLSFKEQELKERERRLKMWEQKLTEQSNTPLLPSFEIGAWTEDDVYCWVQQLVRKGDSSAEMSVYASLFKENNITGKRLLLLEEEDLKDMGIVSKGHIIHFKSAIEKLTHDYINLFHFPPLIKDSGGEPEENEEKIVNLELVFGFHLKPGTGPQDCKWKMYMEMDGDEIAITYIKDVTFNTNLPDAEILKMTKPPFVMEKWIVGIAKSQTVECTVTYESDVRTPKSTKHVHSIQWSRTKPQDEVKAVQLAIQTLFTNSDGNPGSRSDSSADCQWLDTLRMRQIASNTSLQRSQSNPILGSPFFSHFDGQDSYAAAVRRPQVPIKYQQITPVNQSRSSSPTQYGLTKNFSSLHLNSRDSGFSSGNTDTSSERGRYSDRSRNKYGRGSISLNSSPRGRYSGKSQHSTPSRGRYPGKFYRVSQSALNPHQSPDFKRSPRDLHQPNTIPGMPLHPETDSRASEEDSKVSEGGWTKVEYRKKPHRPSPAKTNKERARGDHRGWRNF

Receptor-interacting serine/threonine-protein kinase 3, sequence (Q9Y572 whole entry): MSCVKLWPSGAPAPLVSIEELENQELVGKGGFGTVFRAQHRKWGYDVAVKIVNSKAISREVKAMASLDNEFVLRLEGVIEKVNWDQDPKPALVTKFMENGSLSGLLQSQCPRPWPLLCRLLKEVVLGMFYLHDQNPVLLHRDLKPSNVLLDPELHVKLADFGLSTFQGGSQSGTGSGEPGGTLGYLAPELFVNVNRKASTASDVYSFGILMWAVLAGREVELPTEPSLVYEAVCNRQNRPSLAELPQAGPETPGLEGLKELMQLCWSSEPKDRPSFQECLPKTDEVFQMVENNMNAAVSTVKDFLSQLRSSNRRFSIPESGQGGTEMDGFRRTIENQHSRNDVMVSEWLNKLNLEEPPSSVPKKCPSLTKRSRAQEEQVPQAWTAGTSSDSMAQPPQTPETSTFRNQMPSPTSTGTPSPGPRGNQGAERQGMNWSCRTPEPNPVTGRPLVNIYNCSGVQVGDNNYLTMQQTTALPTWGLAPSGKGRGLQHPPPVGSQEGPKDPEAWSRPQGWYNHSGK
Tyrosine-protein kinase ABL2, sequence (P42684 whole entry): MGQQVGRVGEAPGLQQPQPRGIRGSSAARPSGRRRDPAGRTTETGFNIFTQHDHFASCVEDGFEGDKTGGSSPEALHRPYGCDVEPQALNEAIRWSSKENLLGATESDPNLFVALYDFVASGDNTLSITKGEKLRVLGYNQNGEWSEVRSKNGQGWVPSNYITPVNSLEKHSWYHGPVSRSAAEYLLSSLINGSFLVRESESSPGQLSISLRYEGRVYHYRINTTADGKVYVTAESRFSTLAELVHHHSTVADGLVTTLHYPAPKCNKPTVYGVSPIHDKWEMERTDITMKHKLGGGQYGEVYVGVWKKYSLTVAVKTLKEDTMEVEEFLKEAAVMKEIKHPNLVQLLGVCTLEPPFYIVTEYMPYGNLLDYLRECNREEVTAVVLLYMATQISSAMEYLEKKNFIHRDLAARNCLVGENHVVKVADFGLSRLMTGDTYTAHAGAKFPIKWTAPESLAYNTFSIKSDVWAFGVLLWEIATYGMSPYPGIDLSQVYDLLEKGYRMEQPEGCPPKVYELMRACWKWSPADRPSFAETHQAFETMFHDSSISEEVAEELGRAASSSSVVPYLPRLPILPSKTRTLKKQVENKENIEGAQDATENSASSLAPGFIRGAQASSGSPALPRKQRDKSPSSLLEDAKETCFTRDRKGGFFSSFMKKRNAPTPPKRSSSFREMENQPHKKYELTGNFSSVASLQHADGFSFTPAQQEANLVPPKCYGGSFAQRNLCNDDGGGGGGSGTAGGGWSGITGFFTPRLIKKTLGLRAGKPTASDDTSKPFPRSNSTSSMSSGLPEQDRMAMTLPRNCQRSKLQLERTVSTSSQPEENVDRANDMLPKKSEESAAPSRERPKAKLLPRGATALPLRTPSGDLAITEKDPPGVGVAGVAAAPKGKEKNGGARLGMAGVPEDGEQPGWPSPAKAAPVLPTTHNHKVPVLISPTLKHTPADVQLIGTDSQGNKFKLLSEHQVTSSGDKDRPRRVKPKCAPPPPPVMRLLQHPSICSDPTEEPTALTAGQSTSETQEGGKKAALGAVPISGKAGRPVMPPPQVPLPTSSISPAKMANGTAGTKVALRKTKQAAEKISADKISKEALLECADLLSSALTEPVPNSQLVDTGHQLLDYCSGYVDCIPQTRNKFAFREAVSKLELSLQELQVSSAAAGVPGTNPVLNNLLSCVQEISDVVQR
26S proteasome regulatory subunit 6B, sequence (P43686 whole entry): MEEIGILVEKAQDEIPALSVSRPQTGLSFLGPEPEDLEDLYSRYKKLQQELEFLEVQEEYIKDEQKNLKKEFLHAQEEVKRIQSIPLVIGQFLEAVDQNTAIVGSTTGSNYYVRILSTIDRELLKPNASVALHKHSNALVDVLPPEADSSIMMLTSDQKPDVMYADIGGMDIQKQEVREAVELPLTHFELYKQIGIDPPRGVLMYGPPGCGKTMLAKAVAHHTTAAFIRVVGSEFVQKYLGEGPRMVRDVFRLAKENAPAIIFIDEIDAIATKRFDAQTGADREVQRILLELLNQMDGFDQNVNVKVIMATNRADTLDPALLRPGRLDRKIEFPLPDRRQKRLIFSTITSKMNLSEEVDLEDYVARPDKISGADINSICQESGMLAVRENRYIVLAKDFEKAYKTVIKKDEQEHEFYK
Fibroblast growth factor receptor 1, sequence (P11362 whole entry): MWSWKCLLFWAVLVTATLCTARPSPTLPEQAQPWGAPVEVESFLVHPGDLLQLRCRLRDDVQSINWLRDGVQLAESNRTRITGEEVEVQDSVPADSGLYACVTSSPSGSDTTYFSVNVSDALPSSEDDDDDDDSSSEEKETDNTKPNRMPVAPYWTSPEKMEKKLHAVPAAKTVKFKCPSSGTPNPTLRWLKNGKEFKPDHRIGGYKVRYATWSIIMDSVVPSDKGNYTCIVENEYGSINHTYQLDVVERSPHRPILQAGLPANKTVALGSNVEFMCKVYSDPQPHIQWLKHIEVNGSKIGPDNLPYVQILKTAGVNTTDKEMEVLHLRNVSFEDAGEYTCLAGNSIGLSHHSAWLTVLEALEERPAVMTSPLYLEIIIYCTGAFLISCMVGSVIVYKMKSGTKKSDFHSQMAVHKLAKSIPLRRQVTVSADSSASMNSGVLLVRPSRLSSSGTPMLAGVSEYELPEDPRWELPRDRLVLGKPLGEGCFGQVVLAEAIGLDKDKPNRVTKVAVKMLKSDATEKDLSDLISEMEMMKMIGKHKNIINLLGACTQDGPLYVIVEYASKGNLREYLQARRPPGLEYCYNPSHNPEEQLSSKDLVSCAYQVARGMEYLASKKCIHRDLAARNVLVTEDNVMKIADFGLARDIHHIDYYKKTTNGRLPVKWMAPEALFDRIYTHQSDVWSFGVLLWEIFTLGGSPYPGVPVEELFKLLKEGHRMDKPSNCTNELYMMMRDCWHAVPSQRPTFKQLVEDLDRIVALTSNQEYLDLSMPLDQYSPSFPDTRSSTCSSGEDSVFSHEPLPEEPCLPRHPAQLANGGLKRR
Glycogen synthase kinase-3 beta, sequence (P49841 whole entry): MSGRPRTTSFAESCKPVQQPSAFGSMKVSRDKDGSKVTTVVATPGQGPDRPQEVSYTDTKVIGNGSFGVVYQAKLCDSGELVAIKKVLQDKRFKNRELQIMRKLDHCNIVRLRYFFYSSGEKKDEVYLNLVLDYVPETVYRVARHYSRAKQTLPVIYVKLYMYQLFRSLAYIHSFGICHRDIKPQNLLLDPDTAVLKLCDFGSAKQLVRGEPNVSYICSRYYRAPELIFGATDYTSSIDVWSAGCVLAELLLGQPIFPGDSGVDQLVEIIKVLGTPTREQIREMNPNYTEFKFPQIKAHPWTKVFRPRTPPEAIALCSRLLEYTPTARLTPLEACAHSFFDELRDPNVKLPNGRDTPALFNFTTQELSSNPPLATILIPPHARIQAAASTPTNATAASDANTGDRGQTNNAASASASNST
MAP/microtubule affinity-regulating kinase 3, sequence (P27448 whole entry, canonical isoform): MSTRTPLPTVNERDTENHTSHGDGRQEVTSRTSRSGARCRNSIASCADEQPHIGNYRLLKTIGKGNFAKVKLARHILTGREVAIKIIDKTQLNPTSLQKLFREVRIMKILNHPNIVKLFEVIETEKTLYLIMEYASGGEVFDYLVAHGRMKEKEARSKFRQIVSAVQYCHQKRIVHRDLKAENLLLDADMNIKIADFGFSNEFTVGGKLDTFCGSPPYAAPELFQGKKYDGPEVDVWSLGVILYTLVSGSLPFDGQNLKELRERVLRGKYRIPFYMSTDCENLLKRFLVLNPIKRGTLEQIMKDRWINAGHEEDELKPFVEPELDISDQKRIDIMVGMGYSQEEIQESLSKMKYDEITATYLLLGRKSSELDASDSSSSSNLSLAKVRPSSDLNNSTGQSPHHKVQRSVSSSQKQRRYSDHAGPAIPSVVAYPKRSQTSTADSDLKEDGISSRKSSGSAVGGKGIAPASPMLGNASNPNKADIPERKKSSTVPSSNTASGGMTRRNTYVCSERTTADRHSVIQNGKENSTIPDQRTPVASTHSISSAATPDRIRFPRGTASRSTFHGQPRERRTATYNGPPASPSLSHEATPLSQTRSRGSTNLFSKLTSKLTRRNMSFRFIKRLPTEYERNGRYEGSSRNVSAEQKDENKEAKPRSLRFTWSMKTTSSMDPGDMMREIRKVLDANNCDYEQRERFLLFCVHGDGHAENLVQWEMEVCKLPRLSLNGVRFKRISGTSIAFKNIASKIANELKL

Structure (SMILES) | Kd [1] | Kd [2] | Kd [3] | Kd [4] | Kd [5] | Kd [6] | Kd [7] | Kd [8] | Kd [9] | Kd [10] | Kd [11] | Kd [12] | Kd [13] | Kd [14]
Cc1c(F)cc(C(=O)NC2CC2)cc1-c1ccc(C(=O)NCC(C)(C)C)cn1 [LOSMAPIMOD] | > 30 µM (inactive) | > 30 µM (inactive) | > 30 µM (inactive) | > 30 µM (inactive) | > 30 µM (inactive) | > 30 µM (inactive) | – | > 30 µM (inactive) | > 30 µM (inactive) | > 30 µM (inactive) | > 30 µM (inactive) | > 30 µM (inactive) | > 30 µM (inactive) | > 30 µM (inactive)
O=C(c1ccc(F)c(F)c1Nc1ccc(I)cc1F)N1CC(O)([C@@H]2CCCCN2)C1 [COBIMETINIB] | > 30 µM (inactive) | > 30 µM (inactive) | > 30 µM (inactive) | > 30 µM (inactive) | > 30 µM (inactive) | > 30 µM (inactive) | > 30 µM (inactive) | > 30 µM (inactive) | > 30 µM (inactive) | > 30 µM (inactive) | > 30 µM (inactive) | > 30 µM (inactive) | – | > 30 µM (inactive)
COc1cc(N2CCC(N3CCN(C)CC3)CC2)ccc1Nc1ncnc(Nc2ccccc2S(=O)(=O)C(C)C)n1 [ASP-3026] | > 30 µM (inactive) | > 30 µM (inactive) | 0.363 µM (active) | > 30 µM (inactive) | > 30 µM (inactive) | > 30 µM (inactive) | > 30 µM (inactive) | > 30 µM (inactive) | > 30 µM (inactive) | > 30 µM (inactive) | > 30 µM (inactive) | > 30 µM (inactive) | – | > 30 µM (inactive)
C=CC(=O)N1CCC(Oc2cc3c(Nc4ccc(Cl)c(Cl)c4F)ncnc3cc2OC)CC1 [POZIOTINIB] | > 30 µM (inactive) | > 30 µM (inactive) | > 30 µM (inactive) | > 30 µM (inactive) | > 30 µM (inactive) | > 30 µM (inactive) | > 30 µM (inactive) | > 30 µM (inactive) | > 30 µM (inactive) | 0.392 µM (active) | > 30 µM (inactive) | > 30 µM (inactive) | – | > 30 µM (inactive)

Other lines, results leading:

Kd [1] | Kd [2] | Kd [3] | Kd [4] | Kd [5] | Kd [6] | Kd [7] | Kd [8] | Kd [9] | Kd [10] | Kd [11] | Kd [12] | Kd [13] | Kd [14] | Structure (SMILES)
> 30 µM (inactive) | > 30 µM (inactive) | 3.66 µM (active) | > 30 µM (inactive) | > 30 µM (inactive) | > 30 µM (inactive) | > 30 µM (inactive) | > 30 µM (inactive) | > 30 µM (inactive) | > 30 µM (inactive) | > 30 µM (inactive) | 3.37 µM (active) | – | – | C1=C/COCc2cc(ccc2OCCN2CCCC2)Nc2nccc(n2)-c2cccc(c2)COC/1 [PACRITINIB]
> 30 µM (inactive) | > 30 µM (inactive) | > 30 µM (inactive) | > 30 µM (inactive) | > 30 µM (inactive) | > 30 µM (inactive) | > 30 µM (inactive) | > 30 µM (inactive) | > 30 µM (inactive) | > 30 µM (inactive) | – | > 30 µM (inactive) | > 30 µM (inactive) | > 30 µM (inactive) | CN1N=C(N)c2cn([C@@H]3O[C@H](COP(=O)(O)O)[C@@H](O)[C@H]3O)c3ncnc1c23 [TRICIRIBINE PHOSPHATE]
